Source: US10780090B2, “Heteroaryl compounds useful as inhibitors of SUMO activating enzyme” (Millennium Pharmaceuticals, Inc., priority 2014, dated 2020)

Molecular target: recombinant human SAE enzyme (Homo sapiens (Human), UniProt Q9UBT2)
Test: SAE HTRF enzyme assay
Format: biochemical
How it was run: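 0.11 nM SAE incubated with 0.5 μM ATP, 0.01 μM Ubc9-GST and 0.125 μM Sumo-Flag in HEPES pH 7.5, MgCl2, GSH, BSA, ±inhibitor, 105 min at 24° C. EDTA stop; Eu-cryptate anti-Flag/XL-APC anti-GST HTRF read after 2 h. Values given as single-concentration % inhibition or IC50.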

[1] = SAE inhibition at compound concentration 0.111 μM
[2] = SAE inhibition, class symbols, legend in nM

Chain of recombinant human SAE enzyme (Q9UBT2 whole entry): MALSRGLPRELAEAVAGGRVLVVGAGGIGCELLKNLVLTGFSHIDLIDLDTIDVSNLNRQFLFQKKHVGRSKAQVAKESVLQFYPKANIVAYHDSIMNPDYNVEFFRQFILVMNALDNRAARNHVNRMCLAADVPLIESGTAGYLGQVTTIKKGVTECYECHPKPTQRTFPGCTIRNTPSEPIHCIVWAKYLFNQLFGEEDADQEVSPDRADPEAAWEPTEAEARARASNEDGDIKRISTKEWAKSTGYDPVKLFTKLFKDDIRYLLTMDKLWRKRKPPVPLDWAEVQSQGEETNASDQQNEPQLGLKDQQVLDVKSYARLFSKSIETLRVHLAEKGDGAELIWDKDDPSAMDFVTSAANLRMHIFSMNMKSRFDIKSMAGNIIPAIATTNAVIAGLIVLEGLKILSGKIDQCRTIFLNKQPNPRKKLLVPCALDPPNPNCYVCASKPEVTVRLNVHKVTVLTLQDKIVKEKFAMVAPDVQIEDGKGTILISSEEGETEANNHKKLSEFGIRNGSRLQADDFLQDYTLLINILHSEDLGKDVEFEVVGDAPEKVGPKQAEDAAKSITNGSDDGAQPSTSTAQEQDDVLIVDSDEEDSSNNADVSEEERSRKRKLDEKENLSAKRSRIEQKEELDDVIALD
Chain of recombinant human SAE enzyme (Q9UBE0 whole entry partner): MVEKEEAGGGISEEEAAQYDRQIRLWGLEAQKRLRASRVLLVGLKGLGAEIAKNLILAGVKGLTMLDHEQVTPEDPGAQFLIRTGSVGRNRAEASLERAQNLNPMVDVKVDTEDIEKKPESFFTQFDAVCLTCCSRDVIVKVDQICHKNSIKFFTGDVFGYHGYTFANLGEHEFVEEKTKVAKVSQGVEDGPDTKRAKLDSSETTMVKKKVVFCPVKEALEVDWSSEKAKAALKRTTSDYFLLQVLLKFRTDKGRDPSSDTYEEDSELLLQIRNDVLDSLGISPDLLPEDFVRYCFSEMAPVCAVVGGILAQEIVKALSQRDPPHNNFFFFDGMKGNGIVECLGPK

| Structure (SMILES) | Percent Inhibition [1] [%] | IC50 [2] [nM] | Percent Inhibition (Concentration 0.111 μM) | IC50 (class symbols A/B/C) [nM] | inhibition at 0.111 µM (Concentration 0.111 μM, read-out: Percent Inhibition) [%] |
| --- | --- | --- | --- | --- | --- |
| Cc1sc(C(=O)c2cncnc2N[C@@H]2C[C@H](COS(N)(=O)=O)[C@@H](O)C2)cc1[C@@H]1OCCc2ccc(Cl)c(F)c21 (mixture of isomers) [I-303, [(1R,2S,4R)-4-{[5-({4-[(1R)-7-chloro-8-fluoro-3,4-dihydro-1H-isochromen-1-yl]-5-methyl-2-thienyl}carbonyl)pyrimidin-4-yl]amino}-2-hydroxycyclopentyl]methyl sulfamate and [(1R,2S,4R)-4-{[5-({4-[(1S)-7-chloro-8-fluoro-3,4-dihydro-1H-isochromen-1-yl]-5-methyl-2-thienyl}carbonyl)pyrimidin-4-yl]amino}-2-hydroxycyclopentyl]methyl sulfamate] | 99 | < 10 | – | – | – |
| NS(=O)(=O)OC[C@H]1C[C@@H](Nc2ncncc2C(=O)c2cc([C@@H]3CCCc4ccc(Cl)cc43)cs2)C[C@@H]1O (single isomer, unassigned) [I-335a, [(1R,2S,4R)-4-{[5-({4-[(1R)-7-chloro-1,2,3,4-tetrahydronaphthalen-1-yl]-2-thienyl}carbonyl)pyrimidin-4-yl]amino}-2-hydroxycyclopentyl]methyl sulfamate or [(1R,2S,4R)-4-{[5-({4-[(1S)-7-chloro-1,2,3,4-tetrahydronaphthalen-1-yl]-2-thienyl}carbonyl)pyrimidin-4-yl]amino}-2-hydroxycyclopentyl]methyl sulfamate] | 14 | 100 to 1000 | – | – | – |
| NS(=O)(=O)OC[C@H]1C[C@@H](Nc2ncncc2C(=O)c2cc([C@@H]3OCCc4ccc(Cl)cc43)c(C(F)F)s2)C[C@@H]1O [I-361, (1R,2S,4R)-4-[[5-[4-[(R)-7-chloroisochroman-1-yl]-5-(difluoromethyl)thiophene-2-carbonyl]pyrimidin-4-yl]amino]-2-hydroxy-cyclopentyl]methyl sulfamate and (1R,2S,4R)-4-[[5-[4-[(1S)-7-chloroisochroman-1-yl]-5-(difluoromethyl)thiophene-2-carbonyl]pyrimidin-4-yl]amino}-2-hydroxy-cyclopentyl]methyl sulfamate] | 95 | < 10 | – | – | – |
| COc1ccc2c(n1)[C@H](c1cc(C(=O)c3cncnc3N[C@@H]3C[C@H](COS(N)(=O)=O)[C@@H](O)C3)sc1C)OCC2 (mixture of isomers) [I-339, [(1R,2S,4R)-2-hydroxy-4-{[5-({4-[(8S)-2-methoxy-5,8-dihydro-6H-pyrano[3,4-b]pyridin-8-yl]-5-methyl-2-thienyl}carbonyl)pyrimidin-4-yl]amino}cyclopentyl]methyl sulfamate and [(1R,2S,4R)-2-hydroxy-4-{[5-({4-[(8R)-2-methoxy-5,8-dihydro-6H-pyrano[3,4-b]pyridin-8-yl]-5-methyl-2-thienyl}carbonyl)pyrimidin-4-yl]amino}cyclopentyl]methyl sulfamate] | 99 | < 10 | – | – | – |
| NS(=O)(=O)OC[C@H]1C[C@@H](Nc2ncncc2C(=O)c2cc(C(=O)c3ccccc3)c(Cl)s2)C[C@@H]1O [I-215, [(1R,2S,4R)-4-({5-(4-Benzoyl-5-chlor-2-thienyl)carbonyl]pyrimidin-4-yl}amino)-2-hydroxycyclopentyl]methyl sulfamate] | – | – | 36 | 100 to 1000 | – |
| NS(=O)(=O)OC[C@H]1C[C@@H](Nc2ncncc2C(=O)c2cc(CN3CCCC(F)(F)C3)cs2)C[C@@H]1O [I-224, [(1R,2S,4R)-4-{[5-({4-[(3,3-difluoropiperidin-1-yl)methyl]-2-thienyl}carbonyl)pyrimidin-4-yl]amino}-2-hydroxycyclopentyl]methyl sulfamate] | – | – | – | 100 to 1000 | 31 |
| NS(=O)(=O)OC[C@H]1C[C@@H](Nc2ncncc2C(=O)c2cc([C@H](O)c3ccc(Cl)s3)c(Cl)s2)C[C@@H]1O (mixture of isomers) [I-103, [(1R,2S,4R)-4-{[5-({5-chloro-4-[(S)-(5-chloro-2-thienyl)(hydroxy)methyl]-2-thienyl}carbonyl)pyrimidin-4-yl]amino}-2-hydroxycyclopentyl]methyl sulfamate and [(1R,2S,4R)-4-{[5-({5-chloro-4-[(R)-(5-chloro-2-thienyl)(hydroxy)methyl]-2-thienyl}carbonyl)pyrimidin-4-yl]amino}-2-hydroxycyclopentyl]methyl sulfamate] | – | – | 96 | < 10 | – |
| NS(=O)(=O)OC[C@H]1C[C@@H](Nc2ncncc2C(=O)c2cc(Cc3cccc(Cl)c3)c([C@@H]3CCCO3)s2)C[C@@H]1O (mixture of isomers) [I-41, [(1R,2S,4R)-4-{[5-({4-(3-chlorobenzyl)-5-[(2S)-tetrahydrofuran-2-yl]-2-thienyl}carbonyl)pyrimidin-4-yl]amino}-2-hydroxycyclopentyl]methyl sulfamate and [(1R,2S,4R)-4-{[5-({4-(3-chlorobenzyl)-5-[(2R)-tetrahydrofuran-2-yl]-2-thienyl}carbonyl)pyrimidin-4-yl]amino}-2-hydroxycyclopentyl]methyl sulfamate] | – | – | 99 | < 10 | – |
| NS(=O)(=O)OC[C@H]1C[C@@H](Nc2ncncc2C(=O)c2cc([C@@H](O)c3cccc(Br)c3)c(Cl)s2)C[C@@H]1O (single isomer, unassigned) [I-16a, [(1R,2S,4R)-4-{[5-({4-[(S)-(3-Bromophenyl)(hydroxy)methyl-5-chloro-2-thienyl}carbonyl)pyrimidin-4-yl]amino}-2-hydroxycyclopentyl]methyl sulfamate or [(1R,2S,4R)-4-{[5-({4-[(R)-(3-Bromophenyl)(hydroxy)methyl]-5-chloro-2-thienyl}carbonyl)pyrimidin-4-yl]amino}-2-hydroxycyclopentyl]methyl sulfamate] | – | – | 99 | < 10 | – |
| NS(=O)(=O)OC[C@H]1C[C@@H](Nc2ncncc2C(=O)c2cc([C@@]3(c4cccc(Cl)c4)CCCS3)cs2)C[C@@H]1O (mixture of isomers) [I-209, {(1R,2S,4R)-4-[(5-{[(2S)-2-(3-chlorophenyl)-2,3,4,5-tetrahydro-2,3′-bithiophen-5′-yl]carbonyl}pyrimidin-4-yl)amino]-2-hydroxycyclopentyl}methyl sulfamate and {(1R,2S,4R)-4-[(5-{[(2R)-2-(3-chlorophenyl)-2,3,4,5-tetrahydro-2,3′-bithiophen-5′-yl]carbonyl}pyrimidin-4-yl)amino]-2-hydroxycyclopentyl}methyl sulfamate] | – | – | 45 | 100 to 1000 | – |
| Cc1sc(C(=O)c2cncnc2N[C@@H]2C[C@H](COS(N)(=O)=O)[C@@H](O)C2)cc1[C@@H]1OCCc2ccc(C3CC3)cc21 (single isomer, unassigned) [I-277a, [(1R,2S,4R)-4-{[5-({4-[(1R)-7-cyclopropyl-3,4-dihydro-1H-isochromen-1-yl]-5-methyl-2-thienyl}carbonyl)pyrimidin-4-yl]amino}-2-hydroxycyclopentyl]methyl sulfamate or [(1R,2S,4R)-4-{[5-({4-[(1S)-7-cyclopropyl-3,4-dihydro-1H-isochromen-1-yl]-5-methyl-2-thienyl}carbonyl)pyrimidin-4-yl]amino}-2-hydroxycyclopentyl]methyl sulfamate] | – | – | 100 | < 10 | – |
